Measured values: patent US11419869B2, “Dosage forms and regimens for amino acid compounds” (Pliant Therapeutics, Inc., priority 2019, dated 2022)

Experiments:
[1] = target: recombinant human integrin αvβ6 (Homo sapiens (Human), UniProt P06756+P18564); assay: Solid Phase Integrin αvβ6 Binding Assay (Examples B1, B2); conditions: TGFβ1 LAP ligand, values given in four ranges, read-out: αvβ6 Inhibition IC50 (nM)-range
How it was run: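 Plates coated with recombinant human αvβ6 (2 μg/mL) compete compound against recombinant TGFβ1 LAP (0.67 μg/mL) in TBS binding buffer with 0.5 mM MnCl2, 2 h at 25 °C. Bound LAP detected with biotin-anti-hLAP and peroxidase-streptavidin; IC50 by four-parameter logistic regression.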

[2] = system: Col1a1 expression; assay: lung slice Col1a1 expression versus DMSO control slices; conditions: FIG. 6A; compared to the DMSO vehicle control slices
[3] = system: lung Col1a1 expression; assay: Precision cut lung slices, chronic bleomycin, versus pirfenidone and nintedanib (Example B10); type: cell-based, mice; conditions: 7 days culture, vs DMSO vehicle, FIG. 6A
Protocol: (§1) Mice (C57BL/6) were administered 3 U/kg of bleomycin (Teva Pharmaceuticals; North Wales, Pa.) on Day 0 and 1 U/kg of bleomycin on days 14, 28, 42 and 56 via oropharyngeal aspiration while under anesthesia. At day 70, 14 days following the final bleomycin insult, precision cut lung slices were obtained. Following euthanization, 2% low gelling temp agarose was injected into the mouse lungs via the trachea. […] The lobes were then subjected to precision slicing to obtain samples for culture using a microtome (Compresstome VF-300-0Z, Precisionary; Greenville, N.C.). Individual slices were distributed in a multiwell culture plate and cultured for 7 days under control (DMSO) and test compound conditions. The viability of the slices over the course of culturing was confirmed by WST-1 assay of mitochondrial activity.
During the culture period, slices in the control group were treated with DMSO and slices in the test group were treated with a DMSO solution of one of compound 5; nintedanib; pirfenidone; a combination of nintedanib and compound 5; a combination of pirfenidone and compound 5; or the small molecule ALK5 inhibitor. Compound 5 was […] effective to equal or exceed its respective IC50 values at αvβ6 and αvβ1. The small molecule ALK5 inhibitor was analyzed at […] its reported IC50 value. Nintendanib and pirfenidone were analyzed at concentrations 10× their reported therapeutic concentrations.

[4] = system: COL1A1 expression; assay: Precision cut lung slices from human IPF explants, COL1A1 expression (Example B11); type: cell-based; conditions: for expression of COL1A1 (treatment alone): PCLS from 5-7 IPF lung samples, seven days, nintedanib 75 nM, pirfenidone 50 μm
Description: Explanted lung tissue was obtained from human IPF subjects and inflated with agarose as described in the preceding examples. Biopsy cores were obtained from the agarose-inflated lung tissue. The biopsy cores were subjected to precision slicing to obtain several hundred μm thick. Individual slices were distributed in a multiwell culture plate and cultured for […] under control (DMSO) and test compound conditions. The viability of the slices over the course of culturing was confirmed by WST-1 assay of mitochondrial activity.
PCLS from 5-7 idopathic pulmonary fibrosis (IPF) lung tissue samples were cultured for seven days with one of: DMSO; Compound 5 at 200 nM; nintedanib at 75 nM; pirfenidone at 50 μm; a combination of Compound 5 at 200 nM and nintedanib at 75 nM; a combination of Compound 5 at 200 nM and pirfenidone at […]; or an Alk5 inhibitor at 1 μm. […] FIG. 6D is a bar graph showing relative expression of COL1A1 in precision cut lung slices (PCLS) from idopathic pulmonary fibrosis (IPF) lung tissue upon exposure to Comopund 5, clinical standard of care compounds nintedanib (Nin) and pirfenidone (Pirf), and an ALK5 inhibitor, all versus DMSO control.
PCLS from a single IPF lung tissue sample were cultured for seven days with Compound 5 at concentrations of […], 2 nM, 60 nM, 200 nM, and 1 μM, along with 0.1% DMSO control and an Alk5 inhibitor at 1 μM. […] COL1A1 expression is also graphed for the PCLS in the presence of 0.1% DMSO control, and an Alk5 inhibitor at 1 μM.

[5] = treatment of IPF; cited from earlier work
[6] = system: Type I Collagen gene Col1a1 expression; assay: Precision cut lung slices, mice under acute bleomycin exposure (Example B8); type: cell-based; conditions: 3 days culture, normalized to DMSO, FIG. 5A
Protocol: Mice (C57BL/6) were administered 3 U/kg of bleomycin (Teva Pharmaceuticals; North Wales, Pa.) on day 0 via oropharyngeal aspiration while under anesthesia. On day 14, precision cut lung slices were obtained. Following euthanization, 2% low gelling temp agarose was injected into the mouse lungs via the trachea. […] The lobes were then subjected to precision slicing to obtain samples for culture using a microtome (Compresstome VF-300-0Z, Precisionary; Greenville, N.C.). Individual slices were distributed in a multiwell culture plate and cultured for 3 days under control (DMSO) and test compound conditions.

[7] = system: lung Col1a1 expression; assay: Precision cut lung slices, mice under chronic bleomycin exposure (Example B9); type: cell-based; conditions: 7 days culture, normalized to DMSO, FIG. 5B
Protocol: as §1, with “after” for “following”
During the culture period, slices in the control group were treated with DMSO and slices in the test group were treated with a DMSO solution of one of: the selective antibody αvβ6 inhibitor 3G9; the αvβ1-selective small molecule inhibitor; a combination of the selective antibody αvβ6 inhibitor 3G9 and the αvβ1-selective small molecule inhibitor; compound 5; and the small molecule ALK5 inhibitor. The selective αvβ1 and αvβ6 integrin inhibitors were analyzed at ≥their respective IC90 concentrations for inhibition of TGF-beta activation. […]

Sequence of recombinant human integrin αvβ6 (P06756 31-992): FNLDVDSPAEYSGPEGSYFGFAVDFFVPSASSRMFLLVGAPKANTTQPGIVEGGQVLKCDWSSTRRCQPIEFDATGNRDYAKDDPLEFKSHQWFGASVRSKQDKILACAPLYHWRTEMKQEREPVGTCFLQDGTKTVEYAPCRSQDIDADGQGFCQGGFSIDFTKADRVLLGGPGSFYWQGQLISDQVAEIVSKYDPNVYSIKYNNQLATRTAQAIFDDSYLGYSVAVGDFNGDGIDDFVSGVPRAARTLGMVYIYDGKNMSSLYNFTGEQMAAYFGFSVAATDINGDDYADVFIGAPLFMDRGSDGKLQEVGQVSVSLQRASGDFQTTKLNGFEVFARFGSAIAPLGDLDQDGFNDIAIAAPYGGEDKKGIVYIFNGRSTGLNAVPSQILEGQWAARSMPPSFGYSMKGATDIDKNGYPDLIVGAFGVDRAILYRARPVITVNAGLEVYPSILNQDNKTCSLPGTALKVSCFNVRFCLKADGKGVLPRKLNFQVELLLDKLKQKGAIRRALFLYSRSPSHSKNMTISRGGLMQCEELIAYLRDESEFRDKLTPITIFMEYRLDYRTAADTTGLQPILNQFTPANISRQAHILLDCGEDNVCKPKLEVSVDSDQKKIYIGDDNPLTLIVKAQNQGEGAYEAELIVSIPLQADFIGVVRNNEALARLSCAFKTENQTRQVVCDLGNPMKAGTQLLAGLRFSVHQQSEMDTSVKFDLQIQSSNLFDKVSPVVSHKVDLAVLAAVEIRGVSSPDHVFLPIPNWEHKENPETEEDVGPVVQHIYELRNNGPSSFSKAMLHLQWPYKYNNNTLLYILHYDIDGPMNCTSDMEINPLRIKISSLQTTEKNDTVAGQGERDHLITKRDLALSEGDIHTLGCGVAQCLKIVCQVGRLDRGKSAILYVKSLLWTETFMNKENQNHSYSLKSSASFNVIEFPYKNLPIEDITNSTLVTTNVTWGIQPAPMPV
Sequence of recombinant human integrin αvβ6 (P18564 22-707): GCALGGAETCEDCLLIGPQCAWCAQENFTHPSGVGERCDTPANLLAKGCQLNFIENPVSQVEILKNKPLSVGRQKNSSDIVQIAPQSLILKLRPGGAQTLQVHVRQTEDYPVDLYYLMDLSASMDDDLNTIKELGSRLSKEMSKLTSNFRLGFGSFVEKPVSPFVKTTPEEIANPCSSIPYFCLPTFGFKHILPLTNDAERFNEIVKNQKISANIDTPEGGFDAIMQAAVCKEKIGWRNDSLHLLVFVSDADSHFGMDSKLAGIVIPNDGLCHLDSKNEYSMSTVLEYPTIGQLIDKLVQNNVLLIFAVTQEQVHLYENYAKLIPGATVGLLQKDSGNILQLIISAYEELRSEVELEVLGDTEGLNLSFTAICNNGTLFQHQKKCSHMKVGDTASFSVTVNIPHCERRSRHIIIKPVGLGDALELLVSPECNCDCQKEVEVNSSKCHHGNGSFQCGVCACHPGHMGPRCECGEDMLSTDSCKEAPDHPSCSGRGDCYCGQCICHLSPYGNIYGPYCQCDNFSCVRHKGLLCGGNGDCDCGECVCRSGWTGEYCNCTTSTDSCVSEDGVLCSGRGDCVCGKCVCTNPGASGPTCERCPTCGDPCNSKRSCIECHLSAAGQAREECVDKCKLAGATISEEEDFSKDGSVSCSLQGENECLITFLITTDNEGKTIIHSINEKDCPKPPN

O=C(O)[C@H](CCN(CCCF)CCCCc1ccc2c(n1)NCCC2)Nc1ncc(C(F)(F)F)cn1 [Compound 137, (S)-4-((3-fluoropropyl) (4-(5,6,7,8-tetrahydro-1,8-naphthyridin-2-yl)butyl)amino)-2-((5-(trifluoromethyl)pyrimidin-2-yl)amino) butanoic acid]
IC50 [1]: < 50 nM

N#Cc1cnc(N[C@@H](CCN(CCCCc2ccc3c(n2)NCCC3)CCOc2ccc(F)cc2)C(=O)O)nc1 [Compound 138, (S)-2-((5-cyanopyrimidin-2-yl)amino)-4-((2-(4-fluorophenoxy)ethyl) (4-(5,6,7,8-tetrahydro-1,8-naphthyridin-2-yl)butyl)amino) butanoic acid]
IC50 [1]: < 50 nM

O=C(O)[C@H](CCN(CCCCc1ccc2c(n1)NCCC2)CCOc1ccc(F)cc1)Nc1ncc(C(F)(F)F)cn1 [Compound 139, (S)-4-((2-(4-fluorophenoxy)ethyl) (4-(5,6,7,8-tetrahydro-1,8-naphthyridin-2-yl)butyl)amino)-2-((5-(trifluoromethyl)pyrimidin-2-yl)amino) butanoic acid]
IC50 [1]: < 50 nM

CN(C)C(=O)CN(CCCCc1ccc2c(n1)NCCC2)CC[C@H](Nc1ncnc2c1cnn2C)C(=O)O [Compound 140, (S)-4-((2-(dimethylamino)-2-oxoethyl) (4-(5,6,7,8-tetrahydro-1,8-naphthyridin-2-yl)butyl)amino)-2-((1-methyl-1H-pyrazolo[3,4-d]pyrimidin-4-yl)amino) butanoic acid]
IC50 [1]: < 50 nM

O=C(O)[C@H](CCN(CCCCc1ccc2c(n1)NCCC2)CC(F)F)Nc1cc(-c2ccccc2)ncn1 [Compound 142, (S)-4-((2,2-difluoroethyl) (4-(5,6,7,8-tetrahydro-1,8-naphthyridin-2-yl)butyl)amino)-2-((6-phenylpyrimidin-4-yl)amino) butanoic acid]
IC50 [1]: > 1000 nM

CN(C)C(=O)CN(CCCCc1ccc2c(n1)NCCC2)CC[C@H](Nc1ccnc(C(F)(F)F)n1)C(=O)O [Compound 145, (S)-4-((2-(dimethylamino)-2-oxoethyl) (4-(5,6,7,8-tetrahydro-1,8-naphthyridin-2-yl)butyl)amino)-2-((2-(trifluoromethyl)pyrimidin-4-yl)amino) butanoic acid]
IC50 [1]: < 50 nM

O=C(O)[C@H](CCN(CCCCc1ccc2c(n1)NCCC2)CC(F)F)Nc1ncc(C2CC2)cn1 [Compound 146, (S)-2-((5-cyclopropylpyrimidin-2-yl)amino)-4-((2,2-difluoroethyl) (4-(5,6,7,8-tetrahydro-1,8-naphthyridin-2-yl)butyl)amino) butanoic acid]
IC50 [1]: > 1000 nM

COC(=O)c1ccc2c(c1)NC(=O)/C2=C(\Nc1ccc(N(C)C(=O)CN2CCN(C)CC2)cc1)c1ccccc1 [nintedanib]
lung Col1a1 expression [2]: slight increase | lung slice Col1a1 expression [3]: slight increase | expression of COL1A1 (treatment alone) [4]: did not significantly reduce | side effects [5]: numerous side effects | therapeutic efficacy [5]: less therapeutic efficacy than desired

Cc1ccc(=O)n(-c2ccccc2)c1 [pirfenidone]
lung Col1a1 expression [2]: slight increase | lung slice Col1a1 expression [3]: slight increase | expression of COL1A1 (treatment alone) [4]: did not significantly reduce | side effects [5]: numerous side effects | therapeutic efficacy [5]: less therapeutic efficacy than desired

CC(C)(C)c1cc(Br)cc([C@H](CC(=O)O)NC(=O)CNC(=O)c2cc(O)cc(NC3=NCC(O)CN3)c2)c1 (stereo partly drawn) [second pan-av small molecule inhibitor, (3S)—N-[3-hydroxy-5-[(1,4,5,6-tetrahydro-5-hydroxy-2-pyrimidinyl)amino]benzoyl]glycyl-3-[3-bromo-5-(1,1-dimethylethyl)phenyl]-β-alanine]
Type I Collagen gene Col1a1 expression [6]: reduced Type I Collagen gene Col1a1 expression

Cc1cccc(-c2n[nH]cc2-c2ccc(F)c(-c3cnn(CCO)c3)c2)n1 [small molecule ALK5 inhibitor, 4-[2-Fluoro-5-[3-(6-methyl-2-pyridinyl)-1H-pyrazol-4-yl]phenyl]-1H-pyrazole-1-ethanol, reference compound]
Type I Collagen gene Col1a1 expression [6]: greatest decrease | lung Col1a1 expression [7]: greatest decrease | lung slice Col1a1 expression [3]: substantial, statistically significant (p<0.0001 vs vehicle) decrease | lung Col1a1 expression ([4]; human IPF slices, 3 days, 3G9 ≥400 ng/mL, compound 5 179 nM, ALK5 inhibitor 1 μM, FIG. 6C): decrease in lung Col1a1 expression
